{
  "source": "PubChem BioAssay AID1259409",
  "about": "(Chemical Carcinogenesis Research Information System (CCRIS), 2018)",
  "origin": "cited, not measured here",
  "system": "rodent chemically induced tumor inhibition, incidence and multiplicity",
  "assay": "CCRIS tumor inhibitor studies",
  "conditions": "Species: MOUSE",
  "data": [
    {"smiles": "NCCCCNCCCN", "values": [
      {"measurement": "tumour outcome (control, treated, inhibition, significance)", "setting": "Carcinogen: TRANS-5-AMINO-3-[2-(5-NITRO-2-FURYL)VINYL]-1,2,4-OXADIAZOLE;SQL8506, 28754-68-9, Carcinogen: TRANS-5-AMINO-3-[2-(5-NITRO-2-FURYL)VINYL]-1,2,4-OXADIAZOLE;SQL8506, 28754-68-9, Dose [Inhibitor]: 150 MG/KG 16 HR BEFORE THE 1ST CARCINOGEN DOSE FOLLOWED BY ADDITIONAL DOSES IMMEDIATELY BEFORE EACH DOSE OF CARCINOGEN (, Route [Inhibitor]: INTRAPERITONEAL, Strain/Sex: CD-1/FEMALE, Target Tissue: Type of Lesion: HEMATOPOIETIC SYSTEM: MYELOID LEUKEMIA, Dose [Carcinogen]: 1 G/KG 2/D FOR 5 D EVERY 4 WK FOR 3 COURSES OF TREATMENT, Promoter: NONE USED", "value": "7/137 (5%), 2/31 (6%), -20%, not calculated"},
      {"measurement": "tumour outcome (control, treated, inhibition, significance)", "setting": "Carcinogen: TRANS-5-AMINO-3-[2-(5-NITRO-2-FURYL)VINYL]-1,2,4-OXADIAZOLE;SQL8506, 28754-68-9, Carcinogen: TRANS-5-AMINO-3-[2-(5-NITRO-2-FURYL)VINYL]-1,2,4-OXADIAZOLE;SQL8506, 28754-68-9, Dose [Inhibitor]: 150 MG/KG 16 HR BEFORE THE 1ST CARCINOGEN DOSE FOLLOWED BY ADDITIONAL DOSES IMMEDIATELY BEFORE EACH DOSE OF CARCINOGEN (, Route [Inhibitor]: INTRAPERITONEAL, Strain/Sex: CD-1/FEMALE, Target Tissue: Type of Lesion: LYMPHOID TISSUE: NONTHYMIC LYMPHOMA, Dose [Carcinogen]: 1 G/KG 2/D FOR 5 D EVERY 4 WK FOR 3 COURSES OF TREATMENT, Promoter: NONE USED", "value": "8/137 (6%), 1/31 (3%), 50%, not calculated"},
      {"measurement": "tumour outcome (control, treated, inhibition, significance)", "setting": "Carcinogen: TRANS-5-AMINO-3-[2-(5-NITRO-2-FURYL)VINYL]-1,2,4-OXADIAZOLE;SQL8506, 28754-68-9, Carcinogen: TRANS-5-AMINO-3-[2-(5-NITRO-2-FURYL)VINYL]-1,2,4-OXADIAZOLE;SQL8506, 28754-68-9, Dose [Inhibitor]: 150 MG/KG 16 HR BEFORE THE 1ST CARCINOGEN DOSE FOLLOWED BY ADDITIONAL DOSES IMMEDIATELY BEFORE EACH DOSE OF CARCINOGEN (, Route [Inhibitor]: INTRAPERITONEAL, Strain/Sex: CD-1/FEMALE, Target Tissue: Type of Lesion: LYMPHOID TISSUE: THYMIC LYMPHOMA, Dose [Carcinogen]: 1 G/KG 2/D FOR 5 D EVERY 4 WK FOR 3 COURSES OF TREATMENT, Promoter: NONE USED", "value": "22/137 (16%), 4/31 (13%), 19%, not calculated"},
      {"measurement": "tumour outcome (control, treated, inhibition, significance)", "setting": "Carcinogen: TRANS-5-AMINO-3-[2-(5-NITRO-2-FURYL)VINYL]-1,2,4-OXADIAZOLE;SQL8506, 28754-68-9, Carcinogen: TRANS-5-AMINO-3-[2-(5-NITRO-2-FURYL)VINYL]-1,2,4-OXADIAZOLE;SQL8506, 28754-68-9, Dose [Inhibitor]: 150 MG/KG 16 HR BEFORE THE 1ST CARCINOGEN DOSE FOLLOWED BY ADDITIONAL DOSES IMMEDIATELY BEFORE EACH DOSE OF CARCINOGEN (, Route [Inhibitor]: INTRAPERITONEAL, Strain/Sex: CD-1/FEMALE, Target Tissue: Type of Lesion: STOMACH: SQUAMOUS SARCOMA, Dose [Carcinogen]: 1 G/KG 2/D FOR 5 D EVERY 4 WK FOR 3 COURSES OF TREATMENT, Promoter: NONE USED", "value": "60/137 (44%), 7/31 (23%), 48%, not calculated"}
    ]},
    {"smiles": "COc1cc2c(c(OC)c1OC)-c1c(cc3c(c1OC)OCO3)C[C@H](C)[C@@](C)(O)C2", "values": [
      {"measurement": "tumour outcome (control, treated, inhibition, significance)", "setting": "Carcinogen: 7,12-DIMETHYLBENZ[A]ANTHRACENE, 57-97-6, Dose [Inhibitor]: 0, 5 UMOL IN 100 µL ACETONE 30 MIN PRIOR EACH PROMOTER DOSE 2/WK FOR 18 WK BEGINNING 7 D POST CARCINOGEN DOSE (STUDY DUR, Route [Inhibitor]: DERMAL, Strain/Sex: ICR/FEMALE, Target Tissue: Type of Lesion: SKIN: PAPILLOMA, Dose [Carcinogen]: 50 UG IN 100 µL ACETONE ONCE, Promoter: 12-O-TETRADECANOYLPHORBOL-13-ACETATE, 16561-29-8", "value": "100%, 50%, 50%, not calculated"}
    ]},
    {"smiles": "CC(C)(C)c1cc(COCc2cc(C(C)(C)C)c(O)c(C(C)(C)C)c2)cc(C(C)(C)C)c1O", "values": [
      {"measurement": "tumour outcome (control, treated, inhibition, significance)", "setting": "Carcinogen: BENZO[A]PYRENE, 50-32-8, Dose [Inhibitor]: 0.03 MMOL/G OF DIET DAILY STARTING 7 D BEFORE AND CONTINUING THROUGH 3 D AFTER CARCINOGEN TREATMENT FOLLOWED BY OBSERVAT, Route [Inhibitor]: ORAL, Strain/Sex: ICR/FEMALE, Target Tissue: Type of Lesion: FORESTOMACH: NEOPLASM, Dose [Carcinogen]: 1 MG IN 0.2 ML CORN OIL 2/WK FOR 4 WK, Promoter: NONE USED", "value": "94%, 95%, -1%, not significant"}
    ]}
  ]
}
